Measured values: patent US10385024B2, “Compounds and methods for inhibiting NHE-mediated antiport in the treatment of disorders associated with fluid retention or salt overload and gastrointestinal tract disorders” (Ardelyx, Inc., priority 2012, dated 2019)

Tests used:
human NHE-3 = molecular target: T1, human NHE-3 (Homo sapiens, UniProt P48764); assay: Cell-based assay of NHE-3 activity (human NHE3 inhibition assay); conditions: OK cells with human NHE-3 gene, BCECF pH dye, 0-30 μM test compound; for IC50: read-out: Human NHE3 pIC50 (converted)
T1 construct: expressed in transfected cells; host or cells: Opossum kidney (OK) cells (ATCC), transfected by electroporation
T1 sequence (P48764 26-834): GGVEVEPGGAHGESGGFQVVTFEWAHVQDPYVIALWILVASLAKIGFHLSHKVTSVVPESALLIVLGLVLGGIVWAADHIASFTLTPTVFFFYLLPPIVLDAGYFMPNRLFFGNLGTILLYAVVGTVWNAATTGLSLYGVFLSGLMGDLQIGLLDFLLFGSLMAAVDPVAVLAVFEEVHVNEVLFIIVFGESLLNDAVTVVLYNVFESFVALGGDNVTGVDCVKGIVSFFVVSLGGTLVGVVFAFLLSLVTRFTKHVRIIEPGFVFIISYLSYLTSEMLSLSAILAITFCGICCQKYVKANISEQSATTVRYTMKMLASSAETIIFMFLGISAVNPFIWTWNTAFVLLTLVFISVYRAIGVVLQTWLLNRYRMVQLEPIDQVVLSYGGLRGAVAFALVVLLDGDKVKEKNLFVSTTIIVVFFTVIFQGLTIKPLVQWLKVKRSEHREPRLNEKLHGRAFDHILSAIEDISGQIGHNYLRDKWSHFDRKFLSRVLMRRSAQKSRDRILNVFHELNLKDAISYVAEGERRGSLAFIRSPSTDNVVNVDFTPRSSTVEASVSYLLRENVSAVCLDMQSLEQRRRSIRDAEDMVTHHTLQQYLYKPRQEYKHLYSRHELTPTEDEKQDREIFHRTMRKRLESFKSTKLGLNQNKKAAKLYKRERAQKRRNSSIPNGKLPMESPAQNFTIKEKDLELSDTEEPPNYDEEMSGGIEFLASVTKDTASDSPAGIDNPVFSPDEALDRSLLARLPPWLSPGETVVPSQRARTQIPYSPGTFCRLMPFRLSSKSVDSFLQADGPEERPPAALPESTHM
Description: (§1) Rat or human NHE-3-mediated Na^+-dependent H^+ antiport was measured using a modification of the pH sensitive dye method originally reported by Paradiso (Proc. Natl. Acad. Sci. USA. (1984) 81(23): 7436-7440). Opossum kidney (OK) cells were obtained from the ATCC and propagated per their instructions. The rat NHE-3 gene (GenBank M85300) or the human NHE-3 gene (GenBank NM_004174.1) was introduced into OK cells via electroporation, and cells were seeded into 96 well plates and grown overnight. Medium was aspirated from the wells, cells were washed twice with NaCl-HEPES buffer (100 mM NaCl, 50 mM HEPES, 10 mM glucose, 5 mM KCl, 2 mM CaCl2, 1 mM MgCl2, pH 7.4), then incubated for 30 min at room temperature with NH4Cl-HEPES buffer (20 mM NH4Cl, 80 mM NaCl, 50 mM HEPES, 5 mM KCl, 2 mM CaCl2, 1 mM MgCl2, pH 7.4) containing 5 μM bis(acetoxymethyl) 3,3′-(3′,6′-bis(acetoxymethoxy)-5-((acetoxymethoxy)carbonyl)-3-oxo-3H-spiro[isobenzofuran-1,9′-xanthene]-2′,7′-diyl)dipropanoate (BCECF-AM). Cells were washed twice with Ammonium free, Na^+-free HEPES (100 mM choline, 50 mM HEPES, 10 mM glucose, 5 mM KCl, 2 mM CaCl2, 1 mM MgCl2, pH 7.4) and incubated in the same buffer for 10 minutes at room temperature to lower intracellular pH. […] Initial rates were plotted as the average 2 or more replicates, and pIC50 values were estimated using GraphPad Prism.

Rat NHE-3 [1] = molecular target: T2, Rat NHE-3 (Rattus norvegicus, UniProt P26433); assay: Cell-based assay of NHE-3 activity (rat NHE-3 prompt inhibition); conditions: OK cells with rat NHE-3 gene, compound present during pH recovery; for IC50: read-out: Rat NHE3 pIC50 (prompt) (converted)
T2 construct: expressed in transfected cells; host or cells: Opossum kidney (OK) cells (ATCC), transfected by electroporation
T2 sequence (P26433 29-831): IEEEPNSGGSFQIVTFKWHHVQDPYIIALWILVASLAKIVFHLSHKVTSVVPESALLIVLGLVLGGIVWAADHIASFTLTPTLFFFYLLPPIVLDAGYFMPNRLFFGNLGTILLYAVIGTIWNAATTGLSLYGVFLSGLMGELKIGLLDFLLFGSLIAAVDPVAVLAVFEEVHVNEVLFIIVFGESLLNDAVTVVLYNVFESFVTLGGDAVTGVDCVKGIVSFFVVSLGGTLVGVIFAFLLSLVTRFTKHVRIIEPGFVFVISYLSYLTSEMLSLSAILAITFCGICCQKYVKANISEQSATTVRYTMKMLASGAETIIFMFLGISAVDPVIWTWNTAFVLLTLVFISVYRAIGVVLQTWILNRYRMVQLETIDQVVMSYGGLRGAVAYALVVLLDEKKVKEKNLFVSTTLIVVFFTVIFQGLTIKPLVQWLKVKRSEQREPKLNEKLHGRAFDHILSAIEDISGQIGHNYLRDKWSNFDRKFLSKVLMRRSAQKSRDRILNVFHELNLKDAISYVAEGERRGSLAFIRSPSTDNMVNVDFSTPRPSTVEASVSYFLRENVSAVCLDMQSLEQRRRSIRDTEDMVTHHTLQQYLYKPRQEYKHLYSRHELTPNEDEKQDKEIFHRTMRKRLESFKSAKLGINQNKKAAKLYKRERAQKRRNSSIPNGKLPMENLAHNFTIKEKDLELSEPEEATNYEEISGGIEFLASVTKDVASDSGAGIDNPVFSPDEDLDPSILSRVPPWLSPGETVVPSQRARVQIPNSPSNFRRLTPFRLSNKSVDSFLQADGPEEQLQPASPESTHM
Description: as §1

Rat NHE-3 [2] = molecular target: T2, Rat NHE-3; assay: Cell-based assay of NHE-3 activity (persistent inhibition, after washout); conditions: OK cells with rat NHE-3 gene, 60 min incubation, recovery initiated 40 min after compound washout; for IC50: read-out: Rat NHE3 pIC50 (persistent) (converted)
Description: The ability of compounds to inhibit Rat NHE-3-mediated Na^+-dependent H^+ antiport after application and washout was measured using a modification of the pH sensitive dye method described above in Example 74. Opossum kidney (OK) cells were obtained from the ATCC and propagated per their instructions. The rat NHE-3 gene was introduced into OK cells via electroporation, and cells were seeded into 96 well plates and grown overnight. Medium was aspirated from the wells, cells were washed twice with NaCl-HEPES buffer (100 mM NaCl, 50 mM HEPES, 10 mM glucose, 5 mM KCl, 2 mM CaCl2, 1 mM MgCl2, pH 7.4), then overlayed with NaCl-HEPES buffer containing 0-30 μM test compound. After a 60 min incubation, the test drug containing buffer was aspirated from the cells, cells were washed twice with NaCl-HEPES buffer without drug, then incubated for 30 min at room temperature with NH4Cl-HEPES buffer (20 mM NH4Cl, 80 mM NaCl, 50 mM HEPES, 5 mM KCl, 2 mM CaCl2, 1 mM MgCl2, pH 7.4) containing 5 μM BCECF-AM. Cells were washed twice with ammonium free, Na^+-free HEPES (100 mM choline, 50 mM HEPES, 10 mM glucose, 5 mM KCl, 2 mM CaCl2, 1 mM MgCl2, pH 7.4) and incubated in the same buffer for 10 minutes at room temperature to lower intracellular pH. […] Initial rates were plotted as the average 2 or more replicates, and pIC50 values were estimated using GraphPad Prism.

Row | Structure (SMILES) | IC50 (human NHE-3) [µM] | IC50 (Rat NHE-3 [1]) [µM] | IC50 (Rat NHE-3 [2]) [µM] | Human NHE3 pIC50 (human NHE-3) | Rat NHE3 pIC50 (prompt) (Rat NHE-3 [1]) | Rat NHE3 pIC50 (persistent) (Rat NHE-3 [2])
1 | CN1Cc2c(Cl)cc(Cl)cc2[C@H](c2cccc(S(=O)(=O)NCCOCCOCCOCCNC(=O)CN(CCOCCOCCN(CC(=O)NCCOCCOCCOCCNS(=O)(=O)c3cccc([C@@H]4CN(C)Cc5c(Cl)cc(Cl)cc54)c3)CC(=O)NCCOCCOCCOCCNS(=O)(=O)c3cccc([C@@H]4CN(C)Cc5c(Cl)cc(Cl)cc54)c3)CC(=O)NCCOCCOCCOCCNS(=O)(=O)c3cccc([C@@H]4CN(C)Cc5c(Cl)cc(Cl)cc54)c3)c2)C1 [Example 42, 3,12-bis(14-(3-((S)-6,8-dichloro-2-methyl-1,2,3,4-tetrahydroisoquinolin-4-yl)phenylsulfonamido)-2-oxo-6,9,12-trioxa-3-azatetradecyl)-N^1,N^14-bis(2-(2-(2-(2-(3-((S)-6,8-dichloro-2-methyl-1,2,3,4-tetrahydroisoquinolin-4-yl)phenylsulfonamido)ethoxy)ethoxy)ethoxy)ethyl)-6,9-dioxa-3,12-diazatetradecane-1,14-diamide] | < 0.1 | < 0.1 | < 0.1 |  |  | 
2 | CN1Cc2c(Cl)cc(Cl)cc2[C@H](c2cccc(S(=O)(=O)NCCOCCOCCNC(=O)NCCN(CCNC(=O)NCCOCCOCCNS(=O)(=O)c3cccc([C@@H]4CN(C)Cc5c(Cl)cc(Cl)cc54)c3)C(=O)CCCCCCCCCCC(=O)N(CCNC(=O)NCCOCCOCCNS(=O)(=O)c3cccc([C@@H]4CN(C)Cc5c(Cl)cc(Cl)cc54)c3)CCNC(=O)NCCOCCOCCNS(=O)(=O)c3cccc([C@@H]4CN(C)Cc5c(Cl)cc(Cl)cc54)c3)c2)C1 [Example 44, N^1,N^1,N^12,N^12-tetrakis(13-(3-((S)-6,8-dichloro-2-methyl-1,2,3,4-tetrahydroisoquinolin-4-yl)phenylsulfonamido)-4-oxo-8,11-dioxa-3,5-diazatridecyl)dodecanediamide] | > 10 | > 10 | 0.1 to 10 |  |  | 
3 | CN1Cc2c(Cl)cc(Cl)cc2[C@H](c2cccc(S(=O)(=O)NCCOCCOCCNC(=O)NCCN(CCNC(=O)NCCOCCOCCNS(=O)(=O)c3cccc([C@@H]4CN(C)Cc5c(Cl)cc(Cl)cc54)c3)C(=O)NCCCCCCCCCCCCNC(=O)N(CCNC(=O)NCCOCCOCCNS(=O)(=O)c3cccc([C@@H]4CN(C)Cc5c(Cl)cc(Cl)cc54)c3)CCNC(=O)NCCOCCOCCNS(=O)(=O)c3cccc([C@@H]4CN(C)Cc5c(Cl)cc(Cl)cc54)c3)c2)C1 [Example 45] | 0.1 to 10 | 0.1 to 10 | > 10 |  |  | 
4 | CN1Cc2c(Cl)cc(Cl)cc2[C@H](c2cccc(S(=O)(=O)NCCOCCOCCOCCNC(=O)CN(CC(=O)NCCOCCOCCOCCNS(=O)(=O)c3cccc([C@@H]4CN(C)Cc5c(Cl)cc(Cl)cc54)c3)[C@@H]3CCCC[C@H]3N(CC(=O)NCCOCCOCCOCCNS(=O)(=O)c3cccc([C@@H]4CN(C)Cc5c(Cl)cc(Cl)cc54)c3)CC(=O)NCCOCCOCCOCCNS(=O)(=O)c3cccc([C@@H]4CN(C)Cc5c(Cl)cc(Cl)cc54)c3)c2)C1 [Example 48] |  |  |  | C (C NHE3 pIC50 > 7) | B (B NHE3 pIC50 5-7) | C (C NHE3 pIC50 > 7)
5 | CN1Cc2c(Cl)cc(Cl)cc2[C@H](c2cccc(S(=O)(=O)NCCOCCOCCOCCNC(=O)CN(CCN(CC(=O)NCCOCCOCCOCCNS(=O)(=O)c3cccc([C@@H]4CN(C)Cc5c(Cl)cc(Cl)cc54)c3)CC(=O)NCCOCCOCCOCCNS(=O)(=O)c3cccc([C@@H]4CN(C)Cc5c(Cl)cc(Cl)cc54)c3)CCN(CC(=O)NCCOCCOCCOCCNS(=O)(=O)c3cccc([C@@H]4CN(C)Cc5c(Cl)cc(Cl)cc54)c3)CC(=O)NCCOCCOCCOCCNS(=O)(=O)c3cccc([C@@H]4CN(C)Cc5c(Cl)cc(Cl)cc54)c3)c2)C1 [Example 49] |  |  |  | B (B NHE3 pIC50 5-7) | B (B NHE3 pIC50 5-7) | B (B NHE3 pIC50 5-7)
6 | CN1Cc2c(Cl)cc(Cl)cc2[C@H](c2cccc(S(=O)(=O)NCCOCCOCCOCCNC(=O)NCCCN(CCCNC(=O)NCCOCCOCCOCCNS(=O)(=O)c3cccc([C@@H]4CN(C)Cc5c(Cl)cc(Cl)cc54)c3)CCCNC(=O)NCCOCCOCCOCCNS(=O)(=O)c3cccc([C@@H]4CN(C)Cc5c(Cl)cc(Cl)cc54)c3)c2)C1 [Example 51] |  |  |  | C (C NHE3 pIC50 > 7) | C (C NHE3 pIC50 > 7) | C (C NHE3 pIC50 > 7)
7 | CN1Cc2c(Cl)cc(Cl)cc2[C@H](c2cccc(S(=O)(=O)NCCOCCOCCNC(=O)NCCN(CCNC(=O)NCCOCCOCCNS(=O)(=O)c3cccc([C@@H]4CN(C)Cc5c(Cl)cc(Cl)cc54)c3)C(=O)CCOCCOCCOCCOCCOCCC(=O)N(CCNC(=O)NCCOCCOCCNS(=O)(=O)c3cccc([C@@H]4CN(C)Cc5c(Cl)cc(Cl)cc54)c3)CCNC(=O)NCCOCCOCCNS(=O)(=O)c3cccc([C@@H]4CN(C)Cc5c(Cl)cc(Cl)cc54)c3)c2)C1 [Example 59] |  |  |  | C (C NHE3 pIC50 > 7) | B (B NHE3 pIC50 5-7) | C (C NHE3 pIC50 > 7)
8 | CN1Cc2c(Cl)cc(Cl)cc2[C@H](c2cccc(S(=O)(=O)NCCOCCOCCNC(=O)NCCN(CCNC(=O)NCCOCCOCCNS(=O)(=O)c3cccc([C@@H]4CN(C)Cc5c(Cl)cc(Cl)cc54)c3)C(=O)CCOCCOCCOCCOCCOCCOCCOCCOCCOCCC(=O)N(CCNC(=O)NCCOCCOCCNS(=O)(=O)c3cccc([C@@H]4CN(C)Cc5c(Cl)cc(Cl)cc54)c3)CCNC(=O)NCCOCCOCCNS(=O)(=O)c3cccc([C@@H]4CN(C)Cc5c(Cl)cc(Cl)cc54)c3)c2)C1 [Example 61] |  |  |  | C (C NHE3 pIC50 > 7) | B (B NHE3 pIC50 5-7) | B (B NHE3 pIC50 5-7)
9 | CN1Cc2c(Cl)cc(Cl)cc2[C@H](c2cccc(S(=O)(=O)NCCOCCOCCN(C)C(=O)CCC(CCC(=O)N(C)CCOCCOCCNS(=O)(=O)c3cccc([C@@H]4CN(C)Cc5c(Cl)cc(Cl)cc54)c3)(CCC(=O)N(C)CCOCCOCCNS(=O)(=O)c3cccc([C@@H]4CN(C)Cc5c(Cl)cc(Cl)cc54)c3)NC(=O)NCC(=O)O)c2)C1 [Example 69] |  |  |  | C (C NHE3 pIC50 > 7) | C (C NHE3 pIC50 > 7) | C (C NHE3 pIC50 > 7)
